According to US10829458B2 (Araxes Pharma LLC, priority 2015, dated 2020):

Target: T1, KRAS G12C 1-169, his-tagged protein, GDP-loaded (Homo sapiens, UniProt P01116, G12C)
T1 construct: KRAS G12C 1-169, his-tagged protein, GDP-loaded
Assay: Biochemical assay: covalent modification of KRAS G12C measured by mass spectrometry (RapidFire/TOF or Q-Exactive)
Details: covalent binding to KRAS G12C
Outline: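 Covalent adduct formation read by intact-mass spectrometry (TOF or Q Exactive Plus, charge envelopes deconvoluted into modified and unmodified species) after formic acid quench. Reactions contained 2 μM GDP-bound KRAS G12C 1-169 (his-tag) in Hepes/NaCl/MgCl2 buffer plus 10, 30 or 100 μM final compound, held 30 min, 2 h or 24 h at room temperature.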

SMILES | Binding % (compounds of structure (I)) | also measured
C=CC(=O)N1CCN(c2nc(N3CC4(CCOC4)C3)nc3c(F)c(-c4c(O)cccc4F)c(Cl)cc23)CC1 [Example I-155, 1-(4-(6-chloro-8-fluoro-7-(2-fluoro-6-hydroxyphenyl)-2-(6-oxa-2-azaspiro[3,4]octan-2-yl)quinazolin-4-yl)piperazin-1-yl) prop-2-en-1-one] | +++ (+++ indicates binding activity greater than 90%) | 
C=CC(=O)N1CCN(c2nc(OCCO)nc3c(F)c(-c4cc(O)cc5ccccc45)c(Cl)cc23)CC1 [Example I-83, 1-(4-(6-chloro-8-fluoro-2-(2-hydroxyethoxy)-7-(3-hydroxy-naphthalen-1-yl)quinazolin-4-yl)piperazin-1-yl)prop-2-en-1-one] | +++ (+++ indicates binding activity greater than 90%) | 
C=CC(=O)N1CCN(c2nc(OCCN3CCOCC3)nc3c(F)c(-c4cc(O)cc5ccccc45)c(Cl)cc23)CC1 (atropisomer, axis not shown) [Example I-51, (S)-1-(4-(6-chloro-8-fluoro-7-(3-hydroxy-naphthalen-1-yl)-2-(2-morpholino-ethoxy)quinazolin-4-yl)piperazin-1-yl)prop-2-en-1-one] | +++ (+++ indicates binding activity greater than 90%) | 
C=CC(=O)N1CCN(c2nc(NC3CCN(C4CC4)CC3)nc3c(F)c(-c4c(O)cccc4F)c(Cl)cc23)CC1 (atropisomer, axis not shown) [Example I-79, (R)-1-(4-(6-chloro-2-(1-cyclopropyl-piperidin-4-ylamino)-8-fluoro-7-(2-fluoro-6-hydroxyphenyl)quinazolin-4-yl)piperazin-1-yl) prop-2-en-1-one] | + (+ indicates binding activity up to 50%) | 
C=CC(=O)N1CCN(c2nc(NC3CCN(C4COC4)CC3)nc3c(F)c(-c4c(C)ccc5[nH]ncc45)c(Cl)cc23)CC1 [Example I-137, 1-(4-(6-chloro-8-fluoro-7-(5-methyl-1H-indazol-4-yl)-2-(1-(oxetan-3-yl)piperidin-4-ylamino)quinazolin-4-yl)piperazin-1-yl) prop-2-en-1-one] | +++ (+++ indicates binding activity greater than 90%) | 
C=CC(=O)N1CCN(c2nc(OCCC3CCN(C(C)C)CC3)nc3c(F)c(-c4c(O)cccc4F)c(Cl)cc23)CC1 [Example I-180, 1-(4-(6-chloro-8-fluoro-7-(2-fluoro-6-hydroxyphenyl)-2-(2-(1-isopropyl-piperidin-4-yl)ethoxy)quinazolin-4-yl)piperazin-1-yl) prop-2-en-1-one] | +++ (+++ indicates binding activity greater than 90%) | 
C=CC(=O)N1CCN(c2nc(N)nc3c(F)c(-c4c(C)ccc5[nH]ncc45)c(Cl)cc23)CC1 [Example I-189, 1-(4-(2-amino-6-chloro-8-fluoro-7-(5-methyl-1H-indazol-4-yl)quinazolin-4-yl)piperazin-1-yl) prop-2-en-1-one] | ++ (++ indicates binding activity from 50 to 90%) | 
C=CC(=O)N1CCN(c2nc(NC3CN(c4ncccn4)C3)nc3c(F)c(-c4c(O)cccc4F)c(Cl)cc23)CC1 [Example I-182, 1-(4-(6-chloro-8-fluoro-7-(2-fluoro-6-hydroxyphenyl)-2-((1-(pyrimidin-2-yl)azetidin-3-yl)amino)quinazolin-4-yl)piperazin-1-yl) prop-2-en-1-one] | + (+ indicates binding activity up to 50%) | 
C=CC(=O)N1CCN(c2nc(OCCc3ccccn3)nc3c(F)c(-c4c(O)cccc4F)c(Cl)cc23)CC1 (atropisomer, axis not shown) [Example I-103, (S)-1-(4-(6-chloro-8-fluoro-7-(2-fluoro-6-hydroxyphenyl)-2-(2-(pyridin-2-yl)ethoxy)quinazolin-4-yl)piperazin-1-yl) prop-2-en-1-one] | +++ (+++ indicates binding activity greater than 90%) | 
C=CC(=O)N1CCN(c2nc(N3CCOCC3)nc3c(F)c(-c4c(O)cccc4F)c(Cl)cc23)CC1 [Example I-47, 1-(4-(6-chloro-8-fluoro-7-(2-fluoro-6-hydroxyphenyl)-2-morpholino-quinazolin-4-yl)piperazin-1-yl)prop-2-en-1-one] | +++ (+++ indicates binding activity greater than 90%) | 
C=CC(=O)N1CCN(c2nc(N3CC4(COC4)C3)nc3c(F)c(-c4c(O)cccc4F)c(Cl)cc23)CC1 [Example I-148, 1-(4-(6-chloro-8-fluoro-7-(2-fluoro-6-hydroxyphenyl)-2-(2-oxa-6-azaspiro[3.3]heptan-6-yl)quinazolin-4-yl)piperazin-1-yl) prop-2-en-1-one] | +++ (+++ indicates binding activity greater than 90%) | 
C=CC(=O)N1CCC(Nc2ncnc3c(F)c(-c4c(O)cccc4F)c(Cl)cc23)C1 (stereo not shown) [II-9, 1-(3-((6-chloro-8-fluoro-7-(2-fluoro-6-hydroxyphenyl)quinazolin-4-yl)amino)pyrrolidin-1-yl)prop-2-en-1-one] |  | Binding % (compounds of structure (II)): + (+ indicates binding activity up to 50%)
C=CC(=O)N1CCN(c2nc(OCCc3ccc(C)nc3)nc3c(F)c(-c4c(O)cccc4F)c(Cl)cc23)CC1 [Example I-111, 1-(4-(6-chloro-8-fluoro-7-(2-fluoro-6-hydroxyphenyl)-2-(2-(6-methyl-pyridin-3-yl)ethoxy)quinazolin-4-yl)piperazin-1-yl) prop-2-en-1-one] | + (+ indicates binding activity up to 50%) | 
C=CC(=O)N1CCN(c2nc(N3CC(N4CCN(C5CC5)CC4)C3)nc3c(F)c(-c4c(O)cccc4F)c(Cl)cc23)CC1 [Example I-166, 1-(4-(6-chloro-2-(3-(4-cyclopropyl-piperazin-1-yl)azetidin-1-yl)-8-fluoro-7-(2-fluoro-6-hydroxyphenyl)quinazolin-4-yl)piperazin-1-yl) prop-2-en-1-one] | ++ (++ indicates binding activity from 50 to 90%) | 
C=CC(=O)N1CCN(c2nc(N3CC(N(CC)CC)C3)nc3c(F)c(-c4c(O)cccc4F)c(Cl)cc23)CC1 [Example I-131, 1-(4-(6-chloro-2-(3-(diethyl-amino)azetidin-1-yl)-8-fluoro-7-(2-fluoro-6-hydroxyphenyl)quinazolin-4-yl)piperazin-1-yl) prop-2-en-1-one] | +++ (+++ indicates binding activity greater than 90%) | 
C=CC(=O)N1CCN(c2nc(OC3CCN(C(C)C)CC3)nc3c(F)c(-c4c(C)ccc5[nH]ncc45)c(Cl)cc23)CC1 [Example I-193, 1-(4-(6-chloro-8-fluoro-2-((1-isopropyl-piperidin-4-yl)oxy)-7-(5-methyl-1H-indazol-4-yl)quinazolin-4-yl)piperazin-1-yl) prop-2-en-1-one] | +++ (+++ indicates binding activity greater than 90%) | 
C=CC(=O)N1CCN(c2nc(NCCc3ncccn3)nc3c(F)c(-c4c(C)ccc5[nH]ncc45)c(Cl)cc23)CC1 [Example I-169, 1-(4-(6-chloro-8-fluoro-7-(5-methyl-1H-indazol-4-yl)-2-((2-(pyrimidin-2-yl)ethyl)amino)quinazolin-4-yl)piperazin-1-yl) prop-2-en-1-one] | ++ (++ indicates binding activity from 50 to 90%) | 
C=CC(=O)N1CCN(c2ncnc3c(F)c(-c4c(C)ccc5[nH]ncc45)c(Cl)cc23)[C@@H](C)C1 [III-25, 1-((3S)-4-(6-chloro-8-fluoro-7-(5-methyl-1H-indazol-4-yl)quinazolin-4-yl)-3-methyl-piperazin-1-yl)prop-2-en-1-one] |  | Binding % (compounds of structure (III)): +++ (+++ indicates binding activity greater than 90%)
C=CC(=O)N1CCN(c2nc(Oc3cnn(C)c3)nc3c(F)c(-c4c(O)cccc4F)c(Cl)cc23)CC1 [Example I-25, 1-(4-(6-chloro-8-fluoro-7-(2-fluoro-6-hydroxyphenyl)-2-(1-methyl-1H-pyrazol-4-yloxy)quinazolin-4-yl)piperazin-1-yl)prop-2-en-1-one] | +++ (+++ indicates binding activity greater than 90%) | 
C=CC(=O)N1CCN(c2nc(NC3CCN(CC(F)(F)F)CC3)nc3c(F)c(-c4c(C)ccc5[nH]ncc45)c(Cl)cc23)CC1 [Example I-12, 1-(4-(6-chloro-8-fluoro-7-(5-methyl-1H-indazol-4-yl)-2-(1-(2,2,2-trifluoroethyl)piperidin-4-ylamino)quinazolin-4-yl)piperazin-1-yl)prop-2-en-1-one] | ++ (++ indicates binding activity from 50 to 90%) | 
C=CC(=O)N1CCN(c2nc(NC3CCN(c4ncccn4)CC3)nc3c(F)c(-c4c(C)ccc5[nH]ncc45)c(Cl)cc23)CC1 [Example I-184, 1-(4-(6-chloro-8-fluoro-7-(5-methyl-1H-indazol-4-yl)-2-((1-(pyrimidin-2-yl)piperidin-4-yl)amino)quinazolin-4-yl)piperazin-1-yl) prop-2-en-1-one] | + (+ indicates binding activity up to 50%) | 
C=CC(=O)N1CCN(c2ncnc3c(F)c(-c4c(O)cccc4F)c(Cl)cc23)C(=O)C1 [III-38, 4-acryloyl-1-(6-chloro-8-fluoro-7-(2-fluoro-6-hydroxy-phenyl)quinazolin-4-yl) piperazin-2-one] |  | Binding % (compounds of structure (III)): ++ (++ indicates activity from 50% to 90%)
C=CC(=O)N1CCN(c2nc(OCCN3CCOCC3)nc3c(F)c(-c4c(F)cccc4OC)c(Cl)cc23)CC1 [Example I-39, 1-(4-(6-chloro-8-fluoro-7-(2-fluoro-6-methoxyphenyl)-2-(2-morpholino-ethoxy)quinazolin-4-yl)piperazin-1-yl)prop-2-en-1-one] | +++ (+++ indicates binding activity greater than 90%) | 
C=CC(=O)N1CCN(c2nc(CCN3CC(F)(F)C3)nc3c(F)c(-c4c(O)cccc4F)c(Cl)cc23)CC1 [Example I-200, 1-(4-(6-chloro-2-(2-(3,3-difluoro-azetidin-1-yl)ethyl)-8-fluoro-7-(2-fluoro-6-hydroxyphenyl)quinazolin-4-yl)piperazin-1-yl) prop-2-en-1-one] | ++ (++ indicates binding activity from 50 to 90%) | 
C=CC(=O)N1C[C@@H](C)N(c2ncnc3c(F)c(-c4c(O)cccc4F)c(Cl)cc23)[C@@H](C)C1 (atropisomer, axis not shown) [III-36] |  | Binding % (compounds of structure (III)): +++ (+++ indicates binding activity greater than 90%)
